Experimental data as given in ChEMBL document CHEMBL4725372, “Rational Design of Suprastat: A Novel Selective Histone Deacetylase 6 Inhibitor with the Ability to Potentiate Immunotherapy in Melanoma Models” (J Med Chem, 2020).
Calls of active or inactive are those of the source. The rule behind the calls is not given here.

Columns and labels:
[1] = target: T1, Protein deacetylase HDAC6 (Homo sapiens, UniProt Q9UBN7)
T1 sequence (Q9UBN7 whole entry): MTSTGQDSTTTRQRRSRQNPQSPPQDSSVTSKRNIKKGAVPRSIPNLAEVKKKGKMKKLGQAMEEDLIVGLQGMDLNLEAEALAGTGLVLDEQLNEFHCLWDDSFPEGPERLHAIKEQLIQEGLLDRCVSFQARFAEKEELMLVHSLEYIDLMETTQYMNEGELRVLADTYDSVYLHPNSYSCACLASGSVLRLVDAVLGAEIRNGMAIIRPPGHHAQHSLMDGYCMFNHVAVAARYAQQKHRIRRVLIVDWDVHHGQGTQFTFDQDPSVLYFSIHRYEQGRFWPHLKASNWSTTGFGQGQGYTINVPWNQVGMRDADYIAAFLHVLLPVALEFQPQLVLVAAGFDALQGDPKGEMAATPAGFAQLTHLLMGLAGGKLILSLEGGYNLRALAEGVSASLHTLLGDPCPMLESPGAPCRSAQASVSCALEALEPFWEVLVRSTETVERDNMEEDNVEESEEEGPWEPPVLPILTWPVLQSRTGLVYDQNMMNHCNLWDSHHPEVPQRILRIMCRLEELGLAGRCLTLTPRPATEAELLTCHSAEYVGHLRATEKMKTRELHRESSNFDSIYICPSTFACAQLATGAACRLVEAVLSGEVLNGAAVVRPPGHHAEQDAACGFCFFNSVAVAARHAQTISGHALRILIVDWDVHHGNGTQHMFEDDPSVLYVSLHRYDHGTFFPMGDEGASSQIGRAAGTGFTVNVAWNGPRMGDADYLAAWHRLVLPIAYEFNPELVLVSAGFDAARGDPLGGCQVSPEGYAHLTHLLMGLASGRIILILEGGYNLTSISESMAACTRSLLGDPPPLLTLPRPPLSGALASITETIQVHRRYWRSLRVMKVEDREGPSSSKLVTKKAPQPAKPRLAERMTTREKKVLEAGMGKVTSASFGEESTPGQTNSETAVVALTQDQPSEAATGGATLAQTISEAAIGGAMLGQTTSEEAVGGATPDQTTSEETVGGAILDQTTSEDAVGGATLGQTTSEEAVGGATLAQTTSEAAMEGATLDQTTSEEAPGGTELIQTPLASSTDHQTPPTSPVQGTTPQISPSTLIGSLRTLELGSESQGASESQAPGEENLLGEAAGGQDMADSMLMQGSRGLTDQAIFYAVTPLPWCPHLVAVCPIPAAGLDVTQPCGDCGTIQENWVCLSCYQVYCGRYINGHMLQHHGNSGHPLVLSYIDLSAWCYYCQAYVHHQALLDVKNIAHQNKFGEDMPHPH
Description: Inhibition of HDAC6 (unknown origin)

Homo sapiens = species on record: Homo sapiens; assay: Selectivity index, ratio of IC50 for HDAC1 (unknown origin) to HDAC6 (unknown origin)
Histone deacetylase 1 = Histone deacetylase 1 (Homo sapiens, UniProt Q13547)
Description: Inhibition of HDAC1 (unknown origin)

HEK293 [2] = assay: Selectivity index, ratio of IC50 for human HDAC3 expressed in HEK293/T17 cells (unknown origin) to human HDAC6 expressed in HEK293/T17 cells; type: cell-based
HEK293 [3] = assay: Selectivity index, ratio of IC50 for human HDAC7 expressed in HEK293/T17 cells (unknown origin) to human HDAC6 expressed in HEK293/T17 cells; type: cell-based
HEK293 [4] = assay: Selectivity index, ratio of IC50 for human HDAC6 expressed in HEK293/T17 cells (unknown origin) to human HDAC6 expressed in HEK293/T17 cells; type: cell-based
HEK293 [5] = assay: Selectivity index, ratio of IC50 for human HDAC9 expressed in HEK293/T17 cells (unknown origin) to human HDAC6 expressed in HEK293/T17 cells; type: cell-based
[6] = Half life in human plasma at 10 uM by LC-MS/MS analysis; type: ADME, cell-free
[7] = Half life in PBS by LC-MS/MS analysis; type: physicochemical
HEK293 [8] = assay: Selectivity index, ratio of IC50 for human HDAC4 expressed in HEK293/T17 cells (unknown origin) to human HDAC6 expressed in HEK293/T17 cells; type: cell-based
[9] = target: T2, Protein deacetylase HDAC6 (Homo sapiens) (UniProt Q9UBN7); assay: Inhibition of human HDAC6 in human WM164 cells increase in acetylated alpha-tubulin levels at 0.1 to 10 uM by immunoblot analysis; type: cell-based; settings: dose microM 0.1-10
T2 sequence (whole entry): T1 sequence (Q9UBN7 whole entry)

Histone deacetylase 11 = target: T3, Histone deacetylase 11 (Homo sapiens, UniProt Q96DB2); assay: Inhibition of human HDAC11 expressed in HEK293/T17 cells pre-incubated for 10 mins before […] addition and measured after 30 mins by fluorescence-based assay; type: cell-based
T3 sequence (Q96DB2 whole entry): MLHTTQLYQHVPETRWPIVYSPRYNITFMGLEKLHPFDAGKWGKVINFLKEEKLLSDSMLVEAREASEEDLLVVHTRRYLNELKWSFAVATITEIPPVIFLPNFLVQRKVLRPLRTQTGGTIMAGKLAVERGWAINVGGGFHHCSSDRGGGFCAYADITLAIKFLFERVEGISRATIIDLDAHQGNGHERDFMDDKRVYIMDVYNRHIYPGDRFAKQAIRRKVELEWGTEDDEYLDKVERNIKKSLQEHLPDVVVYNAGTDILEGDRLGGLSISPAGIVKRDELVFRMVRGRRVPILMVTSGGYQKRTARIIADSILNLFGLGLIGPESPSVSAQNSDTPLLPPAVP

SM1 [10] = assay: Cytotoxicity in mouse SM1 cells assessed as reduction in cell viability up to 25 uM; type: functional, cell-based; settings: dose microM <=25
[11] = Protein binding in human plasma at 10 uM incubated for 1 hr by LC-MS/MS analysis; type: ADME, cell-free; settings: read-out: PPB (converted)
HEK293 [12] = assay: Selectivity index, ratio of IC50 for human HDAC5 expressed in HEK293/T17 cells (unknown origin) to human HDAC6 expressed in HEK293/T17 cells; type: cell-based
[13] = Half life in rat liver microsome at 10 uM by LC-MS/MS analysis; type: ADME; settings: liver microsomes
HEK293 [14] = assay: Selectivity index, ratio of IC50 for human HDAC1 expressed in HEK293/T17 cells (unknown origin) to human HDAC6 expressed in HEK293/T17 cells; type: cell-based
HEK293 [15] = assay: Selectivity index, ratio of IC50 for human HDAC2 expressed in HEK293/T17 cells (unknown origin) to human HDAC6 expressed in HEK293/T17 cells; type: cell-based
[16] = Half life in SGF by LC-MS/MS analysis; type: ADME
HEK293 [17] = assay: Selectivity index, ratio of IC50 for human HDAC8 expressed in HEK293/T17 cells (unknown origin) to human HDAC6 expressed in HEK293/T17 cells; type: cell-based
[18] = target: Histone deacetylase (Homo sapiens) (UniProt Q13547+O15379+Q9UBN7+Q92769+Q9UQL6+Q8WUI4+Q9BY41+Q96DB2+P56524+Q9UKV0+Q969S8); assay: Inhibition of human HDAC in human WM164 cells increase in acetylated histone H3 levels at 0.1 to 10 uM by immunoblot analysis; type: cell-based; settings: dose microM 0.1-10
SM1 [19] = assay: Potentiation of antitumor immune response in C57BL/6 mouse harboring mouse SM1 cells assessed as decrease in tumor burden at 25 mg/kg, ip dosed 5 days per week before starting 15 mg/kg, ip anti-PD1 immune checkpoint blockade therapy measured on day 14; type: functional, organism-based; settings: time 14.0 day
[20] = target: T2, Protein deacetylase HDAC6 (Homo sapiens); assay: Inhibition of human HDAC6 in human WM164 cells assessed as decrease in STAT3 Y705 phosphorylation at 5 uM pre-incubated before IL6 stimulation for 20 mins by immunoblot analysis; type: cell-based
SM1 [21] = assay: Potentiation of antitumor immune response in C57BL/6 mouse harboring mouse SM1 cells assessed as decrease in tumor burden at 25 mg/kg, ip dosed 5 days per week before starting 15 mg/kg, ip anti-PD1 immune checkpoint blockade therapy measured on day 20; type: functional, organism-based; settings: time 20.0 day

Sequence of Histone deacetylase 1 (Q13547 whole entry): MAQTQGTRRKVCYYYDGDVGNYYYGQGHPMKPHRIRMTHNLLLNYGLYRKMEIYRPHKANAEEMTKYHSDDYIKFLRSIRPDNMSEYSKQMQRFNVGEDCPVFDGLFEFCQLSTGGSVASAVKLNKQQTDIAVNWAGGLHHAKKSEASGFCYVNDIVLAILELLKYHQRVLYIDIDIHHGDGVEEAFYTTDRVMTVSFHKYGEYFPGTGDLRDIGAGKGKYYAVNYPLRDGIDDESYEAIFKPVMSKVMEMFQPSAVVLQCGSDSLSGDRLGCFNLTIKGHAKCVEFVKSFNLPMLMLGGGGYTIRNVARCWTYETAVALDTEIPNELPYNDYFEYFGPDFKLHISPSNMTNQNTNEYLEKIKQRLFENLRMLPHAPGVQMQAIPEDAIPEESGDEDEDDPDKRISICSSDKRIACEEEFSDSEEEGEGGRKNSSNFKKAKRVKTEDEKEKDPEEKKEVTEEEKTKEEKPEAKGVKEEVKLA

Structure (SMILES): O=C(NO)c1ccc(CN(CCCO)C(=O)Cc2ccccc2)cc1
- IC50 [1]: 31 nM
- Ratio IC50 (Homo sapiens): 36
- IC50 (Histone deacetylase 1): 1130 nM

Structure (SMILES): O=C(NO)c1ccc(CN(CCCCO)C(=O)Nc2ccccc2)cc1
- Ratio IC50 (HEK293 [2]): 1160
- Ratio IC50 (HEK293 [3]): 3870
- Ratio IC50 (HEK293 [4]): 1
- Ratio IC50 (HEK293 [5]): 59500
- half-life at 10 µM [6]: > 5 h
- half-life [7]: > 24 h
- Ratio IC50 (HEK293 [8]): 27900
- inhibition [9]: Dose-dependent effect
- IC50 (Histone deacetylase 11): > 50000 nM
- Activity (SM1 [10]): inactive
- fraction unbound at 1 h, 10 µM [11]: 0.52
- Ratio IC50 (HEK293 [12]): 18300
- half-life at 10 µM [13]: 3.3 h
- Ratio IC50 (HEK293 [14]): 296
- Ratio IC50 (HEK293 [15]): 536
- half-life [16]: > 5 h
- Ratio IC50 (HEK293 [17]): 956
- inhibition [18]: Active

Structure (SMILES): O=C(NO)c1cnc(NC2(c3ccccc3)CCC(F)(F)CC2)nc1
- Ratio IC50 (Homo sapiens): 260

Structure (SMILES): CCCCN(Cc1ccc(C(=O)NO)cc1)C(=O)Nc1ccc(CN)cc1
- Ratio IC50 (HEK293 [2]): 492
- Ratio IC50 (HEK293 [3]): 10000
- Ratio IC50 (HEK293 [4]): 1
- Ratio IC50 (HEK293 [5]): 19200
- half-life at 10 µM [6]: > 5 h
- half-life [7]: > 24 h
- Ratio IC50 (HEK293 [8]): 25700
- inhibition [9]: Dose-dependent effect
- IC50 (Histone deacetylase 11): > 50000 nM
- fraction unbound at 1 h, 10 µM [11]: 0.53
- Ratio IC50 (HEK293 [12]): 11200
- half-life at 10 µM [13]: 2.88 h
- Ratio IC50 (HEK293 [14]): 89
- Ratio IC50 (HEK293 [15]): 312
- half-life [16]: > 5 h
- Ratio IC50 (HEK293 [17]): 682
- inhibition [18]: Active

Structure (SMILES): C[C@H](NC(=O)[C@H](CC(=O)NC(C)(C)C)NC(=O)c1ccc(C(=O)NO)cc1)C(=O)NCc1ccccc1
- IC50 [1]: 270 nM
- Ratio IC50 (Homo sapiens): 26
- IC50 (Histone deacetylase 1): 6900 nM

Structure (SMILES): CCCCN(Cc1ccc(C(=O)NO)cc1)C(=O)Nc1ccccc1 [NEXTURASTAT A]
- TGI (SM1 [19]): Active
- half-life at 10 µM [6]: > 5 h
- half-life [7]: > 24 h
- inhibition [20]: Active
- inhibition [9]: Dose-dependent effect
- fraction unbound at 1 h, 10 µM [11]: 0.11
- half-life at 10 µM [13]: 7.05 h
- half-life [16]: > 5 h
- Activity (SM1 [21]): Active
- inhibition [18]: Active
